# Tested on: not listed separately
# Assay: Plasma clearance in rat at 1 mg/kg, iv
# Format: ADME, organism-based
# Design: dose 1 mg/kg, route intravenous
# Details: not given
row,clearance [mL/min/kg],SMILES
1,11,Cc1ccc(-c2ncccn2)c(C(=O)N2CC3(CC3)C[C@H]2CNc2ccc(Cl)cn2)c1

# Species on record: Homo sapiens
# Assay: Selectivity ratio for human recombinant OX1 to human recombinant OX2
# Details: not given
row,Selectivity ratio,SMILES
1,> 100,Cc1ccc(-c2ncccn2)c(C(=O)N2CC3(CC3)C[C@H]2CNc2cc(C(F)(F)F)ccn2)n1

# Tested on: not listed separately
# Assay: Oral bioavailability in rat at 1 mg/kg
# Format: ADME, organism-based
# Details: in vivo
row,bioavailability [%],SMILES
1,40,Cc1ccc(-c2ncccn2)c(C(=O)N2CC3(CC3)C[C@H]2CNc2ccc(Cl)cn2)c1

# Molecular target: CYP2D6 (Homo sapiens, UniProt P10635)
# Sequence (P10635 whole entry): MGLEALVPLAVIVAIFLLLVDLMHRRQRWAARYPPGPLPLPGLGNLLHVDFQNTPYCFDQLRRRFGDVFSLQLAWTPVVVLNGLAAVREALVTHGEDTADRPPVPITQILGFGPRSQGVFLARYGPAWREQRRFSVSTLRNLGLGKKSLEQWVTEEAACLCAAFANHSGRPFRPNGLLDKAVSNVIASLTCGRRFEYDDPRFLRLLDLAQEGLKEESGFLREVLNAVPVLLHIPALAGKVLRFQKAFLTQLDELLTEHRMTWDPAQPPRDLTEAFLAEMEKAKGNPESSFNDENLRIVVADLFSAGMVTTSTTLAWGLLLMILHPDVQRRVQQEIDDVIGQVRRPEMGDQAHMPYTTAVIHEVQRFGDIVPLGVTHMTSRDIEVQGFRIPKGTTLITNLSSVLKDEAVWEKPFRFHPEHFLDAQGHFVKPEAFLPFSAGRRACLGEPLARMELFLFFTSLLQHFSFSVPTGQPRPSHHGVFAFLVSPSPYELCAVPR
# Assay: Inhibition of human recombinant CYP2D6 at 1 uM by fluorimetric assay
# Format: ADME
# Details: not given
row,inhibition at 1 µM [%],SMILES
1,< 39,Cc1ccc(-c2ncccn2)c(C(=O)N2CC3(CC3)C[C@H]2CNc2cc(C(F)(F)F)ccn2)n1
2,< 69,Cc1cc(C(F)(F)F)cc(NC[C@@H]2CC3(CC3)CN2C(=O)c2nc(C)sc2-c2ccccc2)n1
3,< 55,Cc1nc(C(=O)N2CC3(CC3)C[C@H]2CNc2cc(C(F)(F)F)ccn2)c(-c2ccccc2)s1

# Further lines, the molecule ahead of its results:
row,SMILES,inhibition at 1 µM [%]
1,Cc1ccc(-c2ncccn2)c(C(=O)N2CC3(CC3)C[C@H]2CNc2cc(C#N)ccn2)n1,< 17
2,Cc1ccc(-c2ncccn2)c(C(=O)N2CC3(CC3)C[C@H]2CNc2cc(C(F)(F)F)ccn2)c1,< 72
3,O=C(c1cc(Cl)ccc1-c1ncccn1)N1CC2(CC2)C[C@H]1CNc1cc(C(F)(F)F)ccn1,< 57
4,Cc1ccc(-c2ncccn2)c(C(=O)N2CC3(CC3)C[C@H]2CNc2ccc(Cl)cn2)c1,< 53

# Molecular target: T1, Orexin receptor type 2 (Homo sapiens) (UniProt O43614)
# T1 sequence (whole entry): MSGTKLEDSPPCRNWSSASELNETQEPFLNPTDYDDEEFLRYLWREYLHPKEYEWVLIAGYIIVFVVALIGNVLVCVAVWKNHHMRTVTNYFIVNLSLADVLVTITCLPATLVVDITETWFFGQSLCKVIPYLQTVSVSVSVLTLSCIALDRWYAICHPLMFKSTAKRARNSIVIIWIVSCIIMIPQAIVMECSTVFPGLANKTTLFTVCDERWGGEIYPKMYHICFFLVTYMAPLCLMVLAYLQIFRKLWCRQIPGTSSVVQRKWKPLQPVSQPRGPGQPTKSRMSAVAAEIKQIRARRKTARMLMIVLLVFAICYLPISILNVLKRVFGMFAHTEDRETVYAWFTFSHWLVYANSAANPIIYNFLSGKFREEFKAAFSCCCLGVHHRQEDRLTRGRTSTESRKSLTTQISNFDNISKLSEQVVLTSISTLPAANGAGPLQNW
# Assay: Antagonist activity at human recombinant OX2 receptor expressed in HEK293 cells assessed as OXB-stimulated intracellular calcium mobilization by FLIPR assay
# Format: functional, cell-based
# Details: not given
row,pKb,SMILES
1,8.1,Cc1ccc(-c2ncccn2)c(C(=O)N2CC3(CC3)C[C@H]2CNc2cc(C(F)(F)F)ccn2)n1
2,8.6,Cc1cc(C(F)(F)F)cc(NC[C@@H]2CC3(CC3)CN2C(=O)c2nc(C)sc2-c2ccccc2)n1
3,8.5,Cc1nc(C(=O)N2CC3(CC3)C[C@H]2CNc2cc(C(F)(F)F)ccn2)c(-c2ccccc2)s1

# The remaining lines, values behind:
row,SMILES,pKb
1,Cc1ccc(-c2ncccn2)c(C(=O)N2CC3(CC3)C[C@H]2CNc2cc(C(F)(F)F)ccn2)c1,7.8
2,O=C(c1cc(Cl)ccc1-c1ncccn1)N1CC2(CC2)C[C@H]1CNc1cc(C(F)(F)F)ccn1,7.1
3,Cc1ccc(-c2ncccn2)c(C(=O)N2CC3(CC3)C[C@H]2CNc2ccc(Cl)cn2)c1,< 5

# Molecular target: CYP2C19 (Homo sapiens, UniProt P33261)
# Sequence (P33261 whole entry): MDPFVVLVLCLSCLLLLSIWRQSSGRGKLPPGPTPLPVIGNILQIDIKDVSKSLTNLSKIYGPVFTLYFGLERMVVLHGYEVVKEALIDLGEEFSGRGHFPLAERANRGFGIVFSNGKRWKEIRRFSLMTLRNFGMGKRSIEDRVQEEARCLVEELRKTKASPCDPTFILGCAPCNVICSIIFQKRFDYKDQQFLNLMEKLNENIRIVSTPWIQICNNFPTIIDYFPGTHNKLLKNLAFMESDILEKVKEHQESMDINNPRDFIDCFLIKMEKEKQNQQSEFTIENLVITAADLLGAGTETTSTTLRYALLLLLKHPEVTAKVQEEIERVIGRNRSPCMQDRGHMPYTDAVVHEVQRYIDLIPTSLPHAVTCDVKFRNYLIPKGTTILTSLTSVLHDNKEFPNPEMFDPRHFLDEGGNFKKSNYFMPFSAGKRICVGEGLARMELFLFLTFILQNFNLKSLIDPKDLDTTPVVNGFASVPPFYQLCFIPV
# Assay: Inhibition of human recombinant CYP2C19 at 1 uM by fluorimetric assay
# Format: ADME
# Details: not given
row,inhibition at 1 µM [%],SMILES
1,< 39,Cc1ccc(-c2ncccn2)c(C(=O)N2CC3(CC3)C[C@H]2CNc2cc(C(F)(F)F)ccn2)n1
2,< 69,Cc1cc(C(F)(F)F)cc(NC[C@@H]2CC3(CC3)CN2C(=O)c2nc(C)sc2-c2ccccc2)n1
3,< 55,Cc1nc(C(=O)N2CC3(CC3)C[C@H]2CNc2cc(C(F)(F)F)ccn2)c(-c2ccccc2)s1

# More lines, now with the values behind:
row,SMILES,inhibition at 1 µM [%]
1,Cc1ccc(-c2ncccn2)c(C(=O)N2CC3(CC3)C[C@H]2CNc2cc(C#N)ccn2)n1,< 17
2,Cc1ccc(-c2ncccn2)c(C(=O)N2CC3(CC3)C[C@H]2CNc2cc(C(F)(F)F)ccn2)c1,< 72
3,O=C(c1cc(Cl)ccc1-c1ncccn1)N1CC2(CC2)C[C@H]1CNc1cc(C(F)(F)F)ccn1,< 57
4,Cc1ccc(-c2ncccn2)c(C(=O)N2CC3(CC3)C[C@H]2CNc2ccc(Cl)cn2)c1,< 53

# Molecular target: T2, Orexin/Hypocretin receptor type 1 (Homo sapiens) (UniProt O43613)
# T2 sequence (whole entry): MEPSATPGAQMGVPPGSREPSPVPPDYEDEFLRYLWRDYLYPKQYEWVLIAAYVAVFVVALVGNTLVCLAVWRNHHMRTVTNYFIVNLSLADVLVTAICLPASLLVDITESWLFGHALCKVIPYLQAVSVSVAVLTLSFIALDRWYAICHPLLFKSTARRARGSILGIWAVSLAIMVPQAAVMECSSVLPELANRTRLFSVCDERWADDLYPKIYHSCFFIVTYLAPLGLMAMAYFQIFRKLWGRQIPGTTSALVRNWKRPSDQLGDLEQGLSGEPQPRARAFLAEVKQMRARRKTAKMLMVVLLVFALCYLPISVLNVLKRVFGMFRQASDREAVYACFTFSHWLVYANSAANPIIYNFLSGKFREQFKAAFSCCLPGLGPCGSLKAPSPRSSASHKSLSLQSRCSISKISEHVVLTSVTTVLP
# Assay: Antagonist activity at human recombinant OX1 receptor expressed in CHO cells assessed as OXA-stimulated intracellular calcium mobilization by FLIPR assay
# Format: functional, cell-based
# Details: not given
row,pKb,SMILES
1,6,Cc1ccc(-c2ncccn2)c(C(=O)N2CC3(CC3)C[C@H]2CNc2cc(C(F)(F)F)ccn2)n1
2,7.8,Cc1cc(C(F)(F)F)cc(NC[C@@H]2CC3(CC3)CN2C(=O)c2nc(C)sc2-c2ccccc2)n1
3,8.2,Cc1nc(C(=O)N2CC3(CC3)C[C@H]2CNc2cc(C(F)(F)F)ccn2)c(-c2ccccc2)s1

# More lines, now with the values behind:
row,SMILES,pKb
1,Cc1ccc(-c2ncccn2)c(C(=O)N2CC3(CC3)C[C@H]2CNc2cc(C(F)(F)F)ccn2)c1,7.3
2,O=C(c1cc(Cl)ccc1-c1ncccn1)N1CC2(CC2)C[C@H]1CNc1cc(C(F)(F)F)ccn1,8.1
3,Cc1ccc(-c2ncccn2)c(C(=O)N2CC3(CC3)C[C@H]2CNc2ccc(Cl)cn2)c1,8.2

# Molecular target: T3, CYP1A2 (Homo sapiens, UniProt P05177)
# T3 sequence (P05177 whole entry): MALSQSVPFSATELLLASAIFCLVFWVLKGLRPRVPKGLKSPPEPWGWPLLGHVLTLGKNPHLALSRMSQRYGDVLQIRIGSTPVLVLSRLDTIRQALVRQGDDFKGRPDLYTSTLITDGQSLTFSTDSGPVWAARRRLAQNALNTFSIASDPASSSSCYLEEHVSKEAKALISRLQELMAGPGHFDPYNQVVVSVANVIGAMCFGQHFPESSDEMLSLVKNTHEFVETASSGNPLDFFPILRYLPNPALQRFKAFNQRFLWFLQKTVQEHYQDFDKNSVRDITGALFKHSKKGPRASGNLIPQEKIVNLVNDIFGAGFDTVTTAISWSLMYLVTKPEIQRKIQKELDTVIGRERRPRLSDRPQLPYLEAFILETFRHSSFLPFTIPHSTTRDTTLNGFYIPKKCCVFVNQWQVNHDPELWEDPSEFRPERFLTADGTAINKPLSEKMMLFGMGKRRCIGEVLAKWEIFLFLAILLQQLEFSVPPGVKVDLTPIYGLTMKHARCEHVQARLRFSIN
# Assay: Inhibition of human recombinant CYP1A2 at 1 uM by fluorimetric assay
# Format: ADME
# Details: not given
row,inhibition at 1 µM [%],SMILES
1,< 39,Cc1ccc(-c2ncccn2)c(C(=O)N2CC3(CC3)C[C@H]2CNc2cc(C(F)(F)F)ccn2)n1
2,< 69,Cc1cc(C(F)(F)F)cc(NC[C@@H]2CC3(CC3)CN2C(=O)c2nc(C)sc2-c2ccccc2)n1
3,< 55,Cc1nc(C(=O)N2CC3(CC3)C[C@H]2CNc2cc(C(F)(F)F)ccn2)c(-c2ccccc2)s1

# Continued, molecule first:
row,SMILES,inhibition at 1 µM [%]
1,Cc1ccc(-c2ncccn2)c(C(=O)N2CC3(CC3)C[C@H]2CNc2cc(C#N)ccn2)n1,< 17
2,Cc1ccc(-c2ncccn2)c(C(=O)N2CC3(CC3)C[C@H]2CNc2cc(C(F)(F)F)ccn2)c1,< 72
3,O=C(c1cc(Cl)ccc1-c1ncccn1)N1CC2(CC2)C[C@H]1CNc1cc(C(F)(F)F)ccn1,< 57
4,Cc1ccc(-c2ncccn2)c(C(=O)N2CC3(CC3)C[C@H]2CNc2ccc(Cl)cn2)c1,< 53

# Molecular target: CYP2C9 (Homo sapiens, UniProt P11712)
# Sequence (P11712 whole entry): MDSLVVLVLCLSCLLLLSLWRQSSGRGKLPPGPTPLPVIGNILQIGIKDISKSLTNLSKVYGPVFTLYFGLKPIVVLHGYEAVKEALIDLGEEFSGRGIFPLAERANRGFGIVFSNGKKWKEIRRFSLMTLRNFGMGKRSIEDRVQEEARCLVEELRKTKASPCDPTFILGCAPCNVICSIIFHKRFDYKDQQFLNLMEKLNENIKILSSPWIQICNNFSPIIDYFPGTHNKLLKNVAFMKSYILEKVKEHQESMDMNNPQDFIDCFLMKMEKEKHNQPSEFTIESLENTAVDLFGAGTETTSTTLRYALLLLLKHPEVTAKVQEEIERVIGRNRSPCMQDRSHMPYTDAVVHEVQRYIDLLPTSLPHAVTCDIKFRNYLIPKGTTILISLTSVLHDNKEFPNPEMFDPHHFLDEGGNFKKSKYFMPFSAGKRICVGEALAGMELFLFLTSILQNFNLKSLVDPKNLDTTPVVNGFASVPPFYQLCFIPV
# Assay: Inhibition of human recombinant CYP2C9 at 1 uM by fluorimetric assay
# Format: ADME
# Details: not given
row,inhibition at 1 µM [%],SMILES
1,< 39,Cc1ccc(-c2ncccn2)c(C(=O)N2CC3(CC3)C[C@H]2CNc2cc(C(F)(F)F)ccn2)n1
2,< 69,Cc1cc(C(F)(F)F)cc(NC[C@@H]2CC3(CC3)CN2C(=O)c2nc(C)sc2-c2ccccc2)n1
3,< 55,Cc1nc(C(=O)N2CC3(CC3)C[C@H]2CNc2cc(C(F)(F)F)ccn2)c(-c2ccccc2)s1

# The remaining lines, values behind:
row,SMILES,inhibition at 1 µM [%]
1,Cc1ccc(-c2ncccn2)c(C(=O)N2CC3(CC3)C[C@H]2CNc2cc(C#N)ccn2)n1,< 17
2,Cc1ccc(-c2ncccn2)c(C(=O)N2CC3(CC3)C[C@H]2CNc2cc(C(F)(F)F)ccn2)c1,< 72
3,O=C(c1cc(Cl)ccc1-c1ncccn1)N1CC2(CC2)C[C@H]1CNc1cc(C(F)(F)F)ccn1,< 57
4,Cc1ccc(-c2ncccn2)c(C(=O)N2CC3(CC3)C[C@H]2CNc2ccc(Cl)cn2)c1,< 53

# Tested on: not listed separately
# Assay: Ratio of drug uptake from rat brain to plasma at 1 mg/kg, iv after 1 hr
# Format: ADME, organism-based
# Design: dose 1 mg/kg, route intravenous
# Details: read-out: BPR
row,Kp at 1 h,SMILES
1,0.03,Cc1ccc(-c2ncccn2)c(C(=O)N2CC3(CC3)C[C@H]2CNc2ccc(Cl)cn2)c1

# Tested on: not listed separately
# Assay: Volume of distribution at steady state in rat
# Format: ADME, organism-based
# Details: in vivo, read-out: Vdss
row,Vd [L/kg],SMILES
1,6.21,Cc1ccc(-c2ncccn2)c(C(=O)N2CC3(CC3)C[C@H]2CNc2ccc(Cl)cn2)c1

# Molecular target: T4, CYP3A4 (Homo sapiens, UniProt P08684)
# T4 sequence (P08684 whole entry): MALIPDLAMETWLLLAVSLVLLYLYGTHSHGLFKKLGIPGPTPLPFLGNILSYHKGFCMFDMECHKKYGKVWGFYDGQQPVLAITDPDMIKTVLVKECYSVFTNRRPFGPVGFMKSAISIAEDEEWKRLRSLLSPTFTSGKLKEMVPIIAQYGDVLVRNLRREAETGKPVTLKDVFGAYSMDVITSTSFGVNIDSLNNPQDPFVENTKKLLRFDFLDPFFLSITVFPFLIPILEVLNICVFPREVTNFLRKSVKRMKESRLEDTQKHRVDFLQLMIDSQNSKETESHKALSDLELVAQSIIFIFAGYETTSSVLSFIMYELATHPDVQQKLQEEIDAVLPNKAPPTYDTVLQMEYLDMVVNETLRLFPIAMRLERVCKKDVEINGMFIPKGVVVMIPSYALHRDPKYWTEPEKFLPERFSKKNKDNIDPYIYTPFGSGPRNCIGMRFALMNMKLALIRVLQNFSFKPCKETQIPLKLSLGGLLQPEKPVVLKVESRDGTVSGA
# Assay: Inhibition of human recombinant CYP3A4 using BFC as substrate at 1 uM by fluorimetric assay
# Format: ADME
# Details: recombinant CYP3A4, probe BFC
row,inhibition at 1 µM [%],SMILES
1,< 39,Cc1ccc(-c2ncccn2)c(C(=O)N2CC3(CC3)C[C@H]2CNc2cc(C(F)(F)F)ccn2)n1
2,< 69,Cc1cc(C(F)(F)F)cc(NC[C@@H]2CC3(CC3)CN2C(=O)c2nc(C)sc2-c2ccccc2)n1
3,< 55,Cc1nc(C(=O)N2CC3(CC3)C[C@H]2CNc2cc(C(F)(F)F)ccn2)c(-c2ccccc2)s1

# Further lines, the molecule ahead of its results:
row,SMILES,inhibition at 1 µM [%]
1,Cc1ccc(-c2ncccn2)c(C(=O)N2CC3(CC3)C[C@H]2CNc2cc(C#N)ccn2)n1,< 17
2,Cc1ccc(-c2ncccn2)c(C(=O)N2CC3(CC3)C[C@H]2CNc2cc(C(F)(F)F)ccn2)c1,< 72
3,O=C(c1cc(Cl)ccc1-c1ncccn1)N1CC2(CC2)C[C@H]1CNc1cc(C(F)(F)F)ccn1,< 57
4,Cc1ccc(-c2ncccn2)c(C(=O)N2CC3(CC3)C[C@H]2CNc2ccc(Cl)cn2)c1,< 53

# Molecular target: T4, CYP3A4
# Assay: Inhibition of human recombinant CYP3A4 using DBF as substrate at 1 uM by fluorimetric assay
# Format: ADME
# Details: recombinant CYP3A4, probe DBF
row,inhibition at 1 µM [%],SMILES
1,< 39,Cc1ccc(-c2ncccn2)c(C(=O)N2CC3(CC3)C[C@H]2CNc2cc(C(F)(F)F)ccn2)n1
2,< 69,Cc1cc(C(F)(F)F)cc(NC[C@@H]2CC3(CC3)CN2C(=O)c2nc(C)sc2-c2ccccc2)n1
3,< 55,Cc1nc(C(=O)N2CC3(CC3)C[C@H]2CNc2cc(C(F)(F)F)ccn2)c(-c2ccccc2)s1

# The next lines start with the molecule.
row,SMILES,inhibition at 1 µM [%]
1,Cc1ccc(-c2ncccn2)c(C(=O)N2CC3(CC3)C[C@H]2CNc2cc(C#N)ccn2)n1,< 17
2,Cc1ccc(-c2ncccn2)c(C(=O)N2CC3(CC3)C[C@H]2CNc2cc(C(F)(F)F)ccn2)c1,< 72
3,O=C(c1cc(Cl)ccc1-c1ncccn1)N1CC2(CC2)C[C@H]1CNc1cc(C(F)(F)F)ccn1,< 57
4,Cc1ccc(-c2ncccn2)c(C(=O)N2CC3(CC3)C[C@H]2CNc2ccc(Cl)cn2)c1,< 53

# Reference: ChEMBL document CHEMBL2380240, “Discovery, synthesis, selectivity modulation and DMPK characterization of 5-azaspiro[2.4]heptanes as potent orexin receptor antagonists” (Bioorg Med Chem Lett, 2013)
